From patent US20240415791A1, “Therapeutic methods and compositions for treating cancer using devimistat and a fatty acid oxidation inhibitor, a tyrosine kinase inhibitor, a glutaminase inhibitor, and/or a glycolysis inhibitor” (Cornerstone Pharmaceuticals, Inc., priority 2021, published 2024)

Assays:
[1] = Oral bioavailability / plasma pharmacokinetics of devimistat formulations in mice; parameters: species or system BALB/c nude mice; details: mouse, in vivo
Experimental: […]; 5 mL/kg; Ex. 7A); (2) 5 μL/g IP injection of the triethanolamine/dextrose aqueous solution of Example 7 (25 mg/kg; 5 mL/kg; 7A); (3) 5 μL/g oral administration of the Eudragit L100 SDD suspension of Example 7 (100 mg/kg; 5 mL/kg; 7B); (4) 5 μL/g oral administration of the HPMCAS-M SDD suspension of Example 7 (100 mg/kg; 5 mL/kg; 7C); (5) 5 μL/g oral administration of the 20 mg/mL devimistat suspension of Example 7 (100 mg/kg; 5 mL/kg; 7D); or (6) 10 μL/g oral administration of the 10 mg/mL SOLUTOL solution of Example 7 (100 mg/kg; 10 mL/kg; 7E). In each experiment, about 80 μL of blood was collected from one subgroup of 4 male and 4 female mice at 0.083, 1, 4, and 24 hours after dosing, and from the other subgroup of 4 male and 4 female mice at 0.5, 2, and 8 hours. Plasma from the collected blood samples was analyzed by LC-MS/MS for the presence of devimistat.

AsPC1 cells = assay: Devimistat-induced cell death (ATP after recovery) in AsPC1 cells; format: cell-based, human; details: exogenous nutrient-free conditions
Experimental: Cells were plated at 80% confluency in complete RPMI in black, clear bottom 96-well plates or 35-mm dishes for ATP, protein and glycogen analysis, or glass coverslips for fluorescence visualization. […] Prior to drug treatment, cells were incubated in a nutrient-free carbonate buffered salt solution (CBS2) for 3 hours. Drug treatments were then carried out in CBS2 with addition of nutrient sources and/or chemical agents as described in the Examples and Figures.
(§1) LOGIC: High throughput, plate reader assays for cell death essentially always ultimately depend on metabolic activity of cells to identify viability, directly or indirectly. Thus, strong inhibition of metabolic activity by anti-metabolism agents like those described herein can confound cell death analysis by such assays. […] The inventors thus used a recovery-based assay wherein cells are treated with anti-metabolic agents under conditions where mitochondrial metabolism is (or becomes) limiting on viability. After experimental treatment, drug and media are removed and cells are allowed to recover in serum-free RPMI. RPMI provides high levels of glucose in support of glycolytic ATP generation (independently of mitochondrial function), allowing viable cells to recover ATP levels that are ultimately measured in the plate assay to score cell viability.
Survival is assessed by conventional luminescence measurement of ATP levels after this recovery.
TECHNICAL DETAILS: Immediately after drug treatments, acute ATP levels of cells in black, clear bottom 96-well plates were measured using the CellTiter-Glo® Luminescent Cell Viability Assay (catalog #G775B) following Promega (Madison, WI) protocols. […] After this recovery period ATP levels were measured using the CellTiter-Glo® Luminescent Cell Viability Assay as described above.
Survival is assessed by conventional luminescence measurement of ATP levels after this recovery. See the Methods section above for a detailed description of this assay and its validation.

PANC1 cells = assay: Devimistat-induced cell death (ATP after recovery) in PANC1 cells; format: cell-based, human; details: exogenous nutrient-free conditions
Experimental: Cells were plated at 80% confluency in complete RPMI in black, clear bottom 96-well plates or 35-mm dishes for ATP, protein and glycogen analysis, or glass coverslips for fluorescence visualization. To create low nutritional conditions, cells were seeded in complete media, after 24 hours cells were transferred to serum free RPMI for 18-24 hours. Prior to drug treatment, cells were incubated in a nutrient-free carbonate buffered salt solution (CBS2) for 3 hours. Drug treatments were then carried out in CBS2 with addition of nutrient sources and/or chemical agents as described in the Examples and Figures.
as §1, with “cell viability. Under these conditions, cells that are committed to execution of cell death by the experimental treatment score as dead and cells that have not committed to cell death recover ATP levels and score as viable.” for “cell viability.”
Specifically, after exposure to the treatments indicated, cells are allowed to recover ([…]) in RPMI without serum. Survival is assessed by conventional luminescence measurement of ATP levels after this recovery.
TECHNICAL DETAILS: Immediately after drug treatments, acute ATP levels of cells in black, clear bottom 96-well plates were measured using the CellTiter-Glo® Luminescent Cell Viability Assay (catalog #G775B) following Promega (Madison, WI) protocols. To assess cell viability, after drug treatments, drug/agent-containing medium was replaced with serum-free RPMI and cells were incubated for an additional 17-24 hours to allow recovery of viable cells, without additional cell division. After this recovery period ATP levels were measured using the CellTiter-Glo® Luminescent Cell Viability Assay as described above.
A. Exogenous glucose protects from devimistat-induced cell death. Four different cell lines were exposed for 15 hours (PANC1, AsPC1, H460) or 8 hours (PC3) to the indicated range of devimistat doses in the absence of exogenous nutrients (in carbonate buffered balanced salts solution, CBS2) after 3 hours of preincubation in CBS2 (for cell adaptation and to equilibrate soluble nutrient pools). Cells were exposed to the treatments indicated, followed by recovery (24 hours) in RPMI without serum (providing nutrient support for viable cell recovery, without serum factors for cell division). Survival is assessed by conventional luminescence measurement of ATP levels after this recovery. […] The relatively large quantitative differences in devimistat sensitivity between cell lines under exogenous nutrient deprivation are characteristic of each line (see examples below), with small experiment-to-experiment variation. […]

[2] = cited from earlier work

O=C(O)CCCCC(CCSCc1ccccc1)SCc1ccccc1 (centres unmarked) [devimistat, 6,8-bis(benzylsulfanyl)octanoic acid]
oral bioavailability (in words) [1]: orally bioavailable | sensitivity of AsPC1 line to devimistat monotherapy (AsPC1 cells): resistant to devimistat monotherapy | sensitivity of PANC1 line to devimistat monotherapy (PANC1 cells): sensitive to devimistat monotherapy | half-life after IV dosing ([2]; IV dosing): 1 to 2 h | peak serum concentration after clinical infusion ([2]; clinical IV infusion): ~100 µM
